Entries after “also recorded” stand apart in the source; their conditions may differ.
Biological target: T1, SHIP1 enzyme (Mus musculus, UniProt Q9ES52)
T1 construct: Full length, wild-type SHIP1 enzyme (wt); made in house; host or cells: 293T cells, transient transfection with pME18S-His-SHIP
T1 sequence (Q9ES52 1-1191): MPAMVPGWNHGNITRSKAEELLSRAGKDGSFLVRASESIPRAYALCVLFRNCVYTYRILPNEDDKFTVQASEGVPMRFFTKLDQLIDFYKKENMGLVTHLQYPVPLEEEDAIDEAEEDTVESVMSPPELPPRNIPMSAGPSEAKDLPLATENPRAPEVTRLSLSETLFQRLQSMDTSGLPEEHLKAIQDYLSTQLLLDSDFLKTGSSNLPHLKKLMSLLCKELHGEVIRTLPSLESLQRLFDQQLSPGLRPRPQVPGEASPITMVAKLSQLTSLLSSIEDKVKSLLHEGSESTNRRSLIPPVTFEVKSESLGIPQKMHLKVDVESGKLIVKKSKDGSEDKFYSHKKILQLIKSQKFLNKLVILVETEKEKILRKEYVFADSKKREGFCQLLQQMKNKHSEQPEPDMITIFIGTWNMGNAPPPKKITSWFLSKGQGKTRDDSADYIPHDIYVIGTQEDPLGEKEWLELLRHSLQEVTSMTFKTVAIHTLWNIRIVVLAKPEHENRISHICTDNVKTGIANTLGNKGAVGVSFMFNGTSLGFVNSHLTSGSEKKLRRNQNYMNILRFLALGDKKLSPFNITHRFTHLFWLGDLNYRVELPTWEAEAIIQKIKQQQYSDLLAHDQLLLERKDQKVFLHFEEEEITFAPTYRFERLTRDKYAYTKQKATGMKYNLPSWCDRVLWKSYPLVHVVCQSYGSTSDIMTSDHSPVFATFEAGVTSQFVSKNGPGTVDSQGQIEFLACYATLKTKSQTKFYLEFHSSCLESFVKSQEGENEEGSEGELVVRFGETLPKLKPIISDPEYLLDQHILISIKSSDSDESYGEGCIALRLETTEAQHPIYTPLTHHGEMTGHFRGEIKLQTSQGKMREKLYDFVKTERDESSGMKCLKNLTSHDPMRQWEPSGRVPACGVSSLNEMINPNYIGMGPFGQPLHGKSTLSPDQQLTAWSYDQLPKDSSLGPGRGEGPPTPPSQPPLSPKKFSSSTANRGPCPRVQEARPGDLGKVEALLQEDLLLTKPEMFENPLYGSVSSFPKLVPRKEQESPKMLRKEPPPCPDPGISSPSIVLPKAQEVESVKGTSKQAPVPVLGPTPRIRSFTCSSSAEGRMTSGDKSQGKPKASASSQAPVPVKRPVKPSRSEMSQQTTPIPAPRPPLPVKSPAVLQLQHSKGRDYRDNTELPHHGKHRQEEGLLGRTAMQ
Test: In vitro SHIP enzyme assay, wild-type SHIP1
Type: biochemical
Conditions: for SHIP1 enzyme activity in vitro (activation): FIG. 1A / 3B; for activation of wild-type SHIP1 enzyme by allosteric activators: PI-3,4-P2 20 μM, AQX-MN100 80 μg/mL=250 μM, 30 μM IP4, FIG. 4B
Description: Production of recombinant SHIP1 enzyme and SHIP1 C2 and PH domains: Recombinant, N-terminal His6 tagged SHIP1 enzyme was expressed in mammalian 293T cells by transient transfection with pME18S-His-SHIP plasmid and purified to >95% homogeneity by Nichelating bead chromatography (Qiagen, Mississauga, Ontario) as assessed by Coomassie Blue visualization of sodium dodecyl sulfate-polyacrylamide gel electrophoresis (SDS-PAGE) separated material. Recombinant SHIP1 C2 domain (amino acid residues 725 to 863) or SHIP1 PH domain (amino acid residues 984-1319) were expressed in E. coli transformed with a pET28C expression vector constructed as described herein. Cultures were induced overnight with 1 mM IPTG, and protein purified from the cell lysates by Ni-chelating bead chromatography was >95% pure by SDS-PAGE analysis.
In vitro SHIP enzyme assay. The SHIP enzyme assay was performed in 96-well microtitre plates with 10 ng of enzyme/well in a total volume of 25 μL of 20 mM Tris HCl, pH 7.5 and 10 mM MgCl2. […] The reaction was allowed to proceed for 20 min at 37° C. and the amount of inorganic phosphate released assessed by the addition of Malachite Green reagent followed by an absorbance measurement at 650 nm (15). SHIP2 enzyme was purchased from Echelon Biosciences (Salt Lake City, Utah) and an equivalent amount of inositol phosphatase activity was used in the in vitro enzyme assay. Enzyme data are expressed as the mean of triplicates+/−SEM. Experiments were performed at least 3 times.

Molecule: Cc1cc(O)c(O)c2c1[C@]1(C)CC[C@H]3C(C)(C)CCC[C@]3(C)[C@H]1C2 [AQX-016A]
- activation of SHIP1 relative to Pelorol (40 μg/mL, FIG. 1A): 3 fold
- SHIP1 enzyme activity in vitro (activation): increases SHIN enzyme activity in vitro and in vivo

Molecule: Cc1cc(O)cc2c1[C@]1(C)CC[C@H]3C(C)(C)CCC[C@]3(C)[C@H]1C2 [AQX-MN100]
- enhancement of SHIP1 enzyme activity (% change relative to vehicle control, 2 μM final concentration, FIGS. 8A-B): ~500%
- SHIP1 enzyme activity in vitro (activation): enhanced SHIP1 enzyme activity in vitro; also recorded: activates SHIP enzyme activity in vitro
- activation of wild-type SHIP1 enzyme by allosteric activators: activated SHIP to the same extent; also recorded: enhanced

Molecule: phosphatidylinositol-3,4-bisphosphate [PI-3,4-P2, reference compound]
- activation of wild-type SHIP1 enzyme by allosteric activators: activated SHIP to the same extent as AQX-MN100
- activation of wild-type SHIP1 enzyme by allosteric activators (listed as PI(3,4)P2): enhanced

From patent US8956824B2, “Methods for identifying allosteric modulators of ship polypeptides” (British Columbia Cancer Agency Branch, priority 2006, dated 2015)
